Tested on: MDA-MB-231 cells
Experiment: MTT cell viability assay, MDA-MB-231
Type: cell-based, human
Details: co-treatment with LYN-1604 for 24 h

CNC(=O)c1ccccc1Oc1nc(Nc2cc(OC)c(OC)c(OC)c2)ncc1Br [SBI-0206965]
effect on LYN-1604-induced cell death: decrease LYN-1604-induced cell death
